How the values were obtained:
[1] = test system: Phytophthora infestans conidia; test: whole plant or invertebrate; assay type: in vivo; settings: in Solanum lycopersicum, 168 h, read-out: % Control TLB (Tomato Late Blight)
Septoria apii = assay type: in vivo; settings: celery (Utah) plants; % disease reduction relative to untreated check plants; concentration not given
[2] = test system: Alternaria solani conidia; test: Tomato Early Blight control (tomato seedlings, sprayed then inoculated); assay type: in vivo; settings: 288 h, 250-ppm solution, tomato (Bonny Best), relative to untreated check plants, read-out: % Control TEB (Tomato Early Blight)
Description: Compounds of the invention were tested for the control of the Tomato Early Blight organism, Alternaria solani conidia. Tomato (variety Bonny Best) seedlings of 6 to 7 weeks old were used. The tomato plants were sprayed with a 250-ppm solution of the test compound in an acetone-and-water solution containing a small amount of a non-ionic emulsifier. The sprayed plants were inoculated one day later with the organism, placed in the environmental chamber and incubated at 66°-68° F. and 100% relative humidity for 24 hours. Following the incubation, the plants were maintained in the greenhouse for about 12 days. Percent disease control was based on the percent disease development on untreated check plants.

Plasmapora viticola = test: Grape Downy Mildew control (detached grape leaves); assay type: in vivo; settings: detached Vitis vinifera cultivar Emperor leaves; % disease reduction relative to untreated check plants; concentration not given
Description: Grape Downy Mildew Control
The compounds of the invention were tested for the control of the grape downy mildew organism Plasmapora viticola. Detached leaves, between 70 and 85 mm in diameter, of 7-week-old Vitis vinifera cultivar Emperor grape seedlings were used as hosts. The leaves were sprayed with a solution of the test compound in acetone. The sprayed leaves were dried, inoculated with a spore suspension of the organism, placed in a humid environmental chamber and incubated at 66°-68° F. and about 100% relative humidity. After incubation for 2 days, the plants were then held in a greenhouse for seven to nine days. Afterwards, the amount of disease control was determined. The percent disease control provided by a given test compound was based on the percent disease reduction relative to untreated check plants.

Rhizoctonia solani = test: Rhizoctonia mycelial inhibition test; assay type: cell-based; settings: 500 ppm in acetone; 25° C., 24 hours; standard Difolatan; "0" assigned where greater than 1.6 micrograms/cm^2 required for 99% control
Description: Compounds of the present invention were evaluated for effectiveness against Rhizoctonia solani by means of a mycelial inhibition test. This test is designed to measure the fungitoxic activity of fungicidal chemicals in terms of their degree of inhibition of mycelial growth. Each compound to be tested was dissolved in acetone to 500 ppm concentration. Paper strips were infused with the particular mycelium growth (on this case Rhizoctonia solani) by covering the paper with a potato dextrose broth culture of mycelial suspension. The papers were then placed on potato dextrose agar plates and sprayed by means of a microsprayer with the fungicidal solution. The treated paper strips were incubated at 25° C. and data taken after 24 hours. Fungicidal activity is measured by the zone of inhibited mycelial growth from the center of the paper strip. The effectiveness of the compounds tested for fungicidal activity against Rhizoctonia solani is reported in Table III in terms of the [formula] In cases where greater than 1.6 micrograms/cm^2 were required for 99% control, a value of "0" was assigned to the test compound.

Botrytis cinerea = Botrytis cinerea preventive control on harvested grape berries; assay type: in vivo; settings: grape berries (Emperor)
Description: EXAMPLE 15-Botrytis Cinerea Control
Compound 1 of the invention was tested as a preventive fungicide against Botrytis cinerea on harvested mature grape berries (variety Emperor) by the following procedure: four grape bunches (trimmed to approximately 30 berries) were sprayed with a solution of the test compound in a solution of water, acetone and a small amount of a non-ionic emulsifier. The sprayed grapes were inoculated approximately one day later with 2- to 3-week-old culture of Botrytis cinerea grown on potato dextrose agar plates. The rate of disease incidence was determined 5-10 days after inoculation, when disease symptoms are fully evident on non-treated check grapes. Infection is determined by actual count of the number of infected berries. The percent disease control provided by a test compound was calculated from the percentage disease reduction based on the non-treated check grapes.

## COC(=O)CS(=O)(=O)CC1CC(=O)N(c2cc(Cl)cc(Cl)c2)C1=O (centres unmarked) [Compound 1, N-3,5-dichlorophenyl-2-methoxycarbonylmethylsulfonylmethylsuccinimide]
[1]
  pest or weed control at 250 µg/mL: 11%
Septoria apii
  % Control CLB (Celery Late Blight): 57%
[2]
  pest or weed control at 250 µg/mL: 89%
Plasmapora viticola
  % Control Grape DM (Grape Downy Mildew): 81%
Rhizoctonia solani
  % Control Rhizoc (Rhizoctonia): 0%
Botrytis cinerea; 40 ppm
  Botrytis Prevention (% Control): 58%
Botrytis cinerea; 100 ppm
  Botrytis Prevention (% Control): 52%
Botrytis cinerea; 250 ppm
  Botrytis Prevention (% Control): 58%

## COC(=O)CCS(=O)(=O)CC1CC(=O)N(c2cc(Cl)cc(Cl)c2)C1=O (centres unmarked) [Compound 2]
[1]
  pest or weed control at 250 µg/mL: 23%
Septoria apii
  % Control CLB (Celery Late Blight): 45%
[2]
  pest or weed control at 250 µg/mL: 96%
Plasmapora viticola
  % Control Grape DM (Grape Downy Mildew): 71%
Rhizoctonia solani
  % Control Rhizoc (Rhizoctonia): 0%

## CCOC(=O)CS(=O)(=O)CC1CC(=O)N(c2cc(Cl)cc(Cl)c2)C1=O (centres unmarked) [Compound 3, N-3,5-dichlorophenyl-2-ethoxycarbonylmethylsulfonylmethylsuccinimide]
[1]
  pest or weed control at 250 µg/mL: 93%
[2]
  pest or weed control at 250 µg/mL: 85%
Plasmapora viticola
  % Control Grape DM (Grape Downy Mildew): 23%
Rhizoctonia solani
  % Control Rhizoc (Rhizoctonia): 78%

## CCOC(=O)CSCC1CC(=O)N(c2cc(Cl)cc(Cl)c2)C1=O (centres unmarked) [Compound 4, N-3,5-dichlorophenyl-2-ethoxycarbonylmethylthiomethylsuccinimide]
[1]
  pest or weed control at 250 µg/mL: 84%
[2]
  pest or weed control at 250 µg/mL: 0%
Plasmapora viticola
  % Control Grape DM (Grape Downy Mildew): 0%
Rhizoctonia solani
  % Control Rhizoc (Rhizoctonia): 0%

## CC(=O)SCC1CC(=O)N(c2cc(Cl)cc(Cl)c2)C1=O (centres unmarked) [Compound 5, N-3,5-dichlorophenyl-2-thioacetylmethylsuccinimide]
[1]
  pest or weed control at 250 µg/mL: 0%
Septoria apii
  % Control CLB (Celery Late Blight): 0%
[2]
  pest or weed control at 250 µg/mL: 57%
Plasmapora viticola
  % Control Grape DM (Grape Downy Mildew): 23%
Rhizoctonia solani
  % Control Rhizoc (Rhizoctonia): 0%

## COC(=O)CSCC1CC(=O)N(c2cc(Cl)cc(Cl)c2)C1=O (centres unmarked) [Compound 6, N-3,5-dichlorophenyl-2-methoxycarbonylmethylthiomethylsuccinimide]
[1]
  pest or weed control at 250 µg/mL: 39%
Septoria apii
  % Control CLB (Celery Late Blight): 50%
[2]
  pest or weed control at 250 µg/mL: 80%
Plasmapora viticola
  % Control Grape DM (Grape Downy Mildew): 18%
Rhizoctonia solani
  % Control Rhizoc (Rhizoctonia): 0%

## COC(=O)CCSCC1CC(=O)N(c2cc(Cl)cc(Cl)c2)C1=O (centres unmarked) [Compound 7]
[1]
  pest or weed control at 250 µg/mL: 21%
Septoria apii
  % Control CLB (Celery Late Blight): 0%
[2]
  pest or weed control at 250 µg/mL: 89%
Plasmapora viticola
  % Control Grape DM (Grape Downy Mildew): 97%
Rhizoctonia solani
  % Control Rhizoc (Rhizoctonia): 0%

## O=C1CC(C2SCCS2)C(=O)N1c1cc(Cl)cc(Cl)c1 (centres unmarked) [Compound 8, N-3,5-dichlorophenyl-2-formylsuccinimide-2-dithioketal]
[1]
  pest or weed control at 250 µg/mL: 89%
Septoria apii
  % Control CLB (Celery Late Blight): 29%
[2]
  pest or weed control at 250 µg/mL: 98%
Plasmapora viticola
  % Control Grape DM (Grape Downy Mildew): 18%
Rhizoctonia solani
  % Control Rhizoc (Rhizoctonia): 30%

## C=CCS(=O)(=O)CC1CC(=O)N(c2cc(Cl)cc(Cl)c2)C1=O (centres unmarked) [Compound 9, N-3,5-dichlorophenyl-2-allylsulfonylmethylsuccinimide]
[1]
  pest or weed control at 250 µg/mL: 25%
Septoria apii
  % Control CLB (Celery Late Blight): 50%
[2]
  pest or weed control at 250 µg/mL: 63%
Plasmapora viticola
  % Control Grape DM (Grape Downy Mildew): 57%
Rhizoctonia solani
  % Control Rhizoc (Rhizoctonia): 80%

## C=C(Cl)CS(=O)(=O)CC1CC(=O)N(c2cc(Cl)cc(Cl)c2)C1=O (centres unmarked) [Compound 10]
[1]
  pest or weed control at 250 µg/mL: 29%
Septoria apii
  % Control CLB (Celery Late Blight): 50%
[2]
  pest or weed control at 250 µg/mL: 83%
Plasmapora viticola
  % Control Grape DM (Grape Downy Mildew): 18%
Rhizoctonia solani
  % Control Rhizoc (Rhizoctonia): 91%

## CC(C)(C)S(=O)(=O)C=C1CC(=O)N(c2cc(Cl)cc(Cl)c2)C1=O [Compound 11, N-3,5-dichlorophenyl-2-t-butylsulfonylmethenylsuccinimide]
[1]
  pest or weed control at 250 µg/mL: 6%
Septoria apii
  % Control CLB (Celery Late Blight): 0%
[2]
  pest or weed control at 250 µg/mL: 0%
Plasmapora viticola
  % Control Grape DM (Grape Downy Mildew): 8%
Rhizoctonia solani
  % Control Rhizoc (Rhizoctonia): 0%

## O=C1CC(=CSc2ccccc2)C(=O)N1c1cc(Cl)cc(Cl)c1 [Compound 12, N-3,5-dichlorophenyl-2-phenylthiomethenylsuccinimide]
[1]
  pest or weed control at 250 µg/mL: 21%
Septoria apii
  % Control CLB (Celery Late Blight): 0%
[2]
  pest or weed control at 250 µg/mL: 0%
Plasmapora viticola
  % Control Grape DM (Grape Downy Mildew): 0%
Rhizoctonia solani
  % Control Rhizoc (Rhizoctonia): 0%

## CCSC=C1CC(=O)N(c2cc(Cl)cc(Cl)c2)C1=O [Compound 13, N-3,5-dichlorophenyl-2-ethylthiomethenylsuccinimide]
[1]
  pest or weed control at 250 µg/mL: 0%
Septoria apii
  % Control CLB (Celery Late Blight): 0%
[2]
  pest or weed control at 250 µg/mL: 94%
Plasmapora viticola
  % Control Grape DM (Grape Downy Mildew): 35%
Rhizoctonia solani
  % Control Rhizoc (Rhizoctonia): 0%

## CC(C)(C)SC=C1CC(=O)N(c2cc(Cl)cc(Cl)c2)C1=O [Compound 14, N-3,5-dichlorophenyl-2-t-butylthiomethenylsuccinimide]
[1]
  pest or weed control at 250 µg/mL: 67%
Septoria apii
  % Control CLB (Celery Late Blight): 57%
[2]
  pest or weed control at 250 µg/mL: 96%
Plasmapora viticola
  % Control Grape DM (Grape Downy Mildew): 42%
Rhizoctonia solani
  % Control Rhizoc (Rhizoctonia): 0%

From patent US4487777A (priority 1981, dated 1984)
